For data set [1] the following is noted: cited from earlier work.
Data set [2] in a line: Solubility check in organic oil solutions (78% oil, 20% benzyl benzoate, 2% benzyl alcohol). The format is physicochemical. The settings on record: 25 °C; for solubility: oil or lipid, thermodynamic from solid, average of three; for solubility compared among the four esters (in words): oil solutions, comparison with the acetate ester. How it is done:
The solubility for the four esters (mg/mL) was measured in solutions of various organic oils: medium-chain triglyceride (MCT), grape seed oil (GSO), castor oil, cottonseed oil, apricot oil, and sesame oil.
Each solution was composed of a mixture of benzyl benzoate, benzyl alcohol, and oil having a volumetric ratio of 78% oil, 20% benzyl benzoate, and 2% benzyl alcohol. In various pharmaceutical preparations of lipophilic compounds, including various steroids, benzyl benzoate is used as a solubiliser (co-solvent), benzyl alcohol acts as a solvent and at the same time prevents microbial growth and increases the lipid solubility of various esterified compounds, while the oils are used as carriers.
In order to obtain good accuracy, three such procedures were carried out, and their average was used.

On the set-up of data set [3]: method as in PMID 8095531. The settings on record: microemulsion study, cited from earlier work.
Setting [4] is: esterified forms of testosterone, intramuscular injections.
[5] abbreviates: apricot oil / benzyl benzoate / benzyl alcohol solution, apricot oil 78% / benzyl benzoate 20% / benzyl alcohol 2%, read-out: Solubility APRICOT.
[6] abbreviates: castor oil / benzyl benzoate / benzyl alcohol solution, castor oil 78% / benzyl benzoate 20% / benzyl alcohol 2%, read-out: Solubility CASTOR.
Setting [7] is: cottonseed oil / benzyl benzoate / benzyl alcohol solution, cottonseed oil 78% / benzyl benzoate 20% / benzyl alcohol 2%, read-out: Solubility COTTON.
Setting [8] is: grape seed oil / benzyl benzoate / benzyl alcohol solution, grape seed oil 78% / benzyl benzoate 20% / benzyl alcohol 2%, read-out: Solubility GSO.
[9] abbreviates: medium-chain triglyceride 78% / benzyl benzoate 20% / benzyl alcohol 2%, read-out: Solubility MCT.
Where [10] appears, read: sesame oil / benzyl benzoate / benzyl alcohol solution, sesame oil 78% / benzyl benzoate 20% / benzyl alcohol 2%, read-out: Solubility SESAME.

SMILES strings stand for the structures. Values after ≈ are worked out from the molar mass of the structure shown. Like-named read-outs stand apart in the source and are kept apart here.

For `CC(=O)OC1CCC2C3CCC4=CC(=O)CCC4(C)C3CCC12C` (stereo not drawn) [TAce, Androst-4-en-17β-ol-3-one 17β-acetate], in data set [1] (column of Table S2), the “Half-life (days)” value is listed as “less than one day”. Further, the half-life (usually the time in which the quantity being followed falls by half) in data set [1] (setting [4]) is “less than 1 days”. Besides, the solubility (in general, the dissolved amount per volume that the medium holds) in data set [2] (setting [5]) stood at 82.5 mg/mL (≈ 250 mM); in data set [2] (setting [6]), 162 mg/mL (≈ 491 mM); in data set [2] (setting [7]), 98.8 mg/mL (≈ 299 mM); in data set [2] (setting [8]) it was 98.8 mg/mL (≈ 299 mM); in data set [2] (setting [9]) it was 120 mg/mL (≈ 365 mM); in data set [2] (setting [10]), 99 mg/mL (≈ 300 mM). For the same molecule, in data set [2], the “solubility compared among the four esters (in words)” value was “lowest solubility”.

Regarding `CCC(=O)O[C@H]1CC[C@H]2[C@@H]3CCC4=CC(=O)CC[C@]4(C)[C@H]3CC[C@]12C` [TPro, Androst-4-en-17β-ol-3-one 17β-propionate], the “half-life” value in data set [1] (column of Table S2) and in data set [1] (setting [4]) was 1 days each time. For the same molecule, the “concentration obtained in dimethoxytetraethylene glycol” value (“concentration obtained” below) in data set [3] is 12 mg/mL. The “concentration supported in soybean oil” value in data set [3] is given as 3.42 mg/mL. The solubility in data set [2] (setting [5]) stood at 127 mg/mL (≈ 370 mM); in data set [2] (setting [6]), 194 mg/mL (≈ 564 mM); in data set [2] (setting [7]) it was 174 mg/mL (≈ 505 mM); in data set [2] (setting [8]) it was 152 mg/mL (≈ 442 mM); in data set [2] (setting [9]), 185 mg/mL (≈ 538 mM); in data set [2] (setting [10]), 189 mg/mL (≈ 548 mM).

For the molecule `CC(=O)O[C@]1(C(C)=O)CC[C@H]2[C@@H]3C[C@H](C)C4=CC(=O)CC[C@]4(C)[C@H]3CC[C@@]21C` [medroxyprogesterone acetate], in data set [3], the “concentration obtained” value is 1.32 mg/mL and the “concentration supported in soybean oil” value was 2.16 mg/mL.

On to `CC(C)CCC(=O)OC1CCC2C3CCC4=CC(=O)CCC4(C)C3CCC12C` (stereo not drawn) [TIso, Androst-4-en-17β-ol-3-one 17β-4-methylpentanoate], for which the half-life in data set [1] (setting [4]) is on record as 3.1 days. Moreover, the “solubility compared among the four esters (in words)” value in data set [2] is “roughly four-fold greater solubility”.

For the molecule `CCCCCCC(=O)O[C@H]1CC[C@H]2[C@@H]3CCC4=CC(=O)CC[C@]4(C)[C@H]3CC[C@]12C` [testosterone enanthate], in data set [3], the “concentration obtained” value is given as 91.2 mg/mL and the “concentration supported in soybean oil” value is reported as 31.5 mg/mL.

On to `C[C@]12CC[C@H]3[C@@H](CCC4=CC(=O)CC[C@@]43C)[C@@H]1CC[C@@H]2O` [testosterone base, 17β-hydroxyandrost-4-en-3-one], for which the half-life entry in data set [1] (testosterone base (no ester)) is reported as “a few hours”.

As to `CC12CCC(=O)C=C1CCC1C2CCC2(C)C(OC(=O)CCc3ccccc3)CCC12` (stereo not drawn) [TPhp, Androst-4-en-17β-ol-3-one 17β-phenylpropionate], the half-life in data set [1] (setting [4]) is listed as 2.5 days.

Source of the values: paper PMC9611952, “Structural Aspects and Intermolecular Energy for Some Short Testosterone Esters” (Materials, 2022).
